Test results as given in patent US20230183193A1, “4-DIFLUOROMETHYL BENZOYL AMIDES WITH HERBICIDAL ACTION” (BAYER CROPSCIENCE AKTIENGESELLSCHAFT, priority 2017, published 2023).

Assays:
Amaranthus retroflexus [1] = test: Post-emergence herbicidal action, AMARE; assay type: in vivo; conditions: 80 g/ha, Table D
How it was run: (§1)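 Greenhouse-grown weeds in sandy loam, treated at the one-leaf stage 2 to 3 weeks after sowing with WP or EC formulations sprayed as aqueous suspension/emulsion at 600 to […] water plus 0.2% wetting agent. Visual scoring after about 3 weeks versus untreated controls, 0% (like control) to 100% (plants dead).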

Matricaria inodora = test: Pre-emergence herbicidal action, MATIN; assay type: in vivo; conditions: for Herbicidal efficacy against MATIN: Table K
How it was run: (§2)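 Weed seeds were laid out in sandy loam and covered with soil, then the soil surface was treated with an aqueous suspension or emulsion of the formulated compound containing 0.2% wetting agent. Pots stayed in the greenhouse for 3 weeks before damage was rated visually against untreated plants.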

Setaria viridis [2] = test: Post-emergence herbicidal action, SETVI; assay type: in vivo
How it was run: as §1

Alopecurus myosuroides [3] = test: Post-emergence herbicidal action, ALOMY; assay type: in vivo
How it was run: as §1

Alopecurus myosuroides [4] = test: Pre-emergence herbicidal action, ALOMY; assay type: in vivo
How it was run: as §2

Avena fatua [5] = test: Post-emergence herbicidal action, AVEFA; assay type: in vivo
How it was run: as §1

ECHCG [6] = test: Post-emergence herbicidal action, ECHCG; assay type: in vivo; conditions: 80 g/ha, Table C
How it was run: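 Weed and crop plants grown in sandy loam in the greenhouse, treated at the one-leaf stage 2–3 weeks after sowing. Damage scored visually after about 3 weeks vs untreated controls (0% = control, 100% = dead).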

Viola tricolor [7] = test: Pre-emergence herbicidal action, VIOTR; assay type: in vivo; conditions: for Herbicidal efficacy against VIOTR: Table K
How it was run: as §2

Cyperus serotinus [8] = test: Pre-emergence herbicidal action, CYPES; assay type: in vivo
How it was run: as §2

Abutilon theophrasti [9] = test: Pre-emergence herbicidal action, ABUTH; assay type: in vivo; conditions: for Herbicidal efficacy against ABUTH: Table K
How it was run: as §2

Avena fatua [10] = test: Pre-emergence herbicidal action, AVEFA; assay type: in vivo
How it was run: as §2

Amaranthus retroflexus [11] = test: Pre-emergence herbicidal action, AMARE; assay type: in vivo; conditions: dosage 320 g/ha, scored visually after 3 weeks vs untreated controls
How it was run: as §2

Setaria viridis [12] = test: Pre-emergence herbicidal action, SETVI; assay type: in vivo
How it was run: as §2

Cyperus serotinus [13] = test: Post-emergence herbicidal action, CYPES; assay type: in vivo; conditions: 5 g/ha
Procedure: Seeds of monocotyledonous and dicotyledonous weed and crop plants are laid out in sandy loam soil in wood-fiber pots, covered with soil and cultivated in a greenhouse under good growth conditions. 2 to 3 weeks after sowing, the test plants are treated at the one-leaf stage. The compounds of the invention, formulated in the form of wettable powders (WP) or as emulsion concentrates (EC), are then sprayed onto the green parts of the plants in the form of an aqueous suspension or emulsion at a water application rate equating to […], with addition of 0.2% wetting agent. After the test plants have been left to stand in the greenhouse under optimal growth conditions for about 3 weeks, the action of the preparations is assessed visually in comparison to untreated controls (herbicidal action in percent (%): 100% activity=the plants have died, 0% activity=like control plants). […] At the same time, inventive compounds leave Gramineae crops such as barley, wheat, rye, millet/sorghum, corn or rice virtually undamaged when applied post-emergence, even at high active compound dosages. In addition, some substances are also harmless to dicotyledonous crops such as soya, cotton, oilseed rape, sugar beet or potatoes. […]

Polygonum convolvulus = test: Pre-emergence herbicidal action, POLCO; assay type: in vivo; conditions: Table K
How it was run: as §2

Abutilon theophrasti [14] = test: Post-emergence herbicidal action, ABUTH; assay type: in vivo; conditions: 80 g/ha, Table D
How it was run: as §1

Stellaria media [15] = test: Pre-emergence herbicidal action, STEME; assay type: in vivo; conditions: dosage 320 g/ha, scored visually after 3 weeks vs untreated controls
How it was run: as §2

Viola tricolor [16] = test: Post-emergence herbicidal action, VIOTR; assay type: in vivo
How it was run: as §1

Stellaria media [17] = test: Post-emergence herbicidal action, STEME; assay type: in vivo
How it was run: as §1

Pharbitis purpureum = test: Post-emergence herbicidal action, PHBPU; assay type: in vivo; conditions: 80 g/ha, Table D
How it was run: as §1

ECHCG [18] = test: Pre-emergence herbicidal action, ECHCG; assay type: in vivo, Echinochloa crus-galli
[19] = dosage 320 g/ha, scored visually after 3 weeks vs untreated controls

Cc1c(C(=O)Nc2nnnn2C)ccc(C(F)F)c1[S+](C)[O-] (centres unmarked) [Example 1-2]
herbicidal activity AMARE (Amaranthus retroflexus [1]): 80%
Herbicidal efficacy against MATIN (Matricaria inodora; dosage 20 g/ha): 70
Herbicidal efficacy against MATIN (Matricaria inodora; dosage 80 g/ha): 100
Herbicidal efficacy against MATIN (Matricaria inodora; dosage 320 g/ha): 100
herbicidal activity MATIN (Matricaria inodora; [19]): 100%
Herbicidal efficacy against SETVI (Setaria viridis [2]; 5 g/ha): 90
Herbicidal efficacy against SETVI (Setaria viridis [2]; 20 g/ha): 90
herbicidal activity SETVI (Setaria viridis [2]; 80 g/ha, Table C): 90%
Herbicidal efficacy against ALOMY (Alopecurus myosuroides [3]; 5 g/ha): 60
Herbicidal efficacy against ALOMY (Alopecurus myosuroides [3]; 20 g/ha): 80
herbicidal activity ALOMY (Alopecurus myosuroides [3]; 80 g/ha, Table C): 90%
Herbicidal efficacy against ALOMY (Alopecurus myosuroides [4]; 20 g/ha): 70
Herbicidal efficacy against ALOMY (Alopecurus myosuroides [4]; 80 g/ha): 90
Herbicidal efficacy against ALOMY (Alopecurus myosuroides [4]; 320 g/ha): 100
herbicidal activity ALOMY (Alopecurus myosuroides [4]; [19]): 100%
Herbicidal efficacy against AVEFA (Avena fatua [5]; 5 g/ha): 70
Herbicidal efficacy against AVEFA (Avena fatua [5]; 20 g/ha): 90
herbicidal activity AVEFA (Avena fatua [5]; 80 g/ha, Table C): 100%
Herbicidal activity ECHCG (ECHCG [6]): 90%
Herbicidal efficacy against VIOTR (Viola tricolor [7]; dosage 20 g/ha): 80
Herbicidal efficacy against VIOTR (Viola tricolor [7]; dosage 80 g/ha): 100
Herbicidal efficacy against VIOTR (Viola tricolor [7]; dosage 320 g/ha): 100
herbicidal activity VIOTR (Viola tricolor [7]; [19]): 100%
Herbicidal efficacy against CYPES (Cyperus serotinus [8]; 20 g/ha): 60
Herbicidal efficacy against CYPES (Cyperus serotinus [8]; 80 g/ha): 80
Herbicidal efficacy against CYPES (Cyperus serotinus [8]; 320 g/ha): 90
herbicidal activity CYPES (Cyperus serotinus [8]; [19]): 90%
Herbicidal efficacy against ABUTH (Abutilon theophrasti [9]; dosage 80 g/ha): 100
Herbicidal efficacy against ABUTH (Abutilon theophrasti [9]; dosage 320 g/ha): 100
herbicidal activity ABUTH (Abutilon theophrasti [9]; [19]): 100%
Herbicidal efficacy against AVEFA (Avena fatua [10]; 20 g/ha): 20
Herbicidal efficacy against AVEFA (Avena fatua [10]; 80 g/ha): 70
Herbicidal efficacy against AVEFA (Avena fatua [10]; 320 g/ha): 100
herbicidal activity AVEFA (Avena fatua [10]; [19]): 100%
herbicidal activity AMARE (Amaranthus retroflexus [11]): 100%
Herbicidal efficacy against SETVI (Setaria viridis [12]; 80 g/ha): 90
Herbicidal efficacy against SETVI (Setaria viridis [12]; 320 g/ha): 100
herbicidal activity SETVI (Setaria viridis [12]; [19]): 100%
Herbicidal efficacy against CYPES (Cyperus serotinus [13]): 50
Herbicidal efficacy against POLCO (Polygonum convolvulus; dosage 80 g/ha): 70
Herbicidal efficacy against POLCO (Polygonum convolvulus; dosage 320 g/ha): 80
herbicidal activity ABUTH (Abutilon theophrasti [14]): 80%
Herbicidal activity STEME (Stellaria media [15]): 90%
Herbicidal efficacy against VIOTR (Viola tricolor [16]; 5 g/ha): 100
Herbicidal efficacy against VIOTR (Viola tricolor [16]; 20 g/ha): 100
herbicidal activity VIOTR (Viola tricolor [16]; 80 g/ha, Table D): 100%
Herbicidal efficacy against STEME (Stellaria media [17]; 5 g/ha): 90
Herbicidal efficacy against STEME (Stellaria media [17]; 20 g/ha): 90
Herbicidal activity STEME (Stellaria media [17]; 80 g/ha, Table D): 100%
Herbicidal activity PHBPU (Pharbitis purpureum): 90%
Herbicidal efficacy against ECHCG (ECHCG [18]; 20 g/ha): 40
Herbicidal efficacy against ECHCG (ECHCG [18]; 80 g/ha): 100
Herbicidal efficacy against ECHCG (ECHCG [18]; 320 g/ha): 100
